Among the data in ChEMBL document CHEMBL5338801, “Carbohydrate Strengthens the Immunotherapeutic Effect of Small-Molecule PD-L1 Inhibitors” (J Med Chem, 2023) are logD and IC50 values, retold here.

Series [1] is described as follows: Partition coefficient, logD of compound in 1-octanol and phosphate buffer at pH 7.4 incubated for 1 hr under shaking condition by HPLC analysis. As to conditions: for logD at 1 h: 1-octanol/phosphate buffer, pH 7.4. Type of series: physicochemical.
The test system of series [2] is Jurkat. Description: Cytotoxicity against human Jurkat cells assessed as cell growth inhibition incubated for 48 hrs by MTT assay. The series is classed as functional, cell-based. On the technique in general: Tetrazolium dyes change colour on reduction, which living cells bring about.
Series [3] deals with Programmed cell death protein 1/Programmed cell death 1 ligand 1 (Homo sapiens, UniProt Q9NZQ7). The series can be described thus: Inhibition of PD-1/PD-L1 (unknown origin) interaction incubated for 15 mins by HTRF assay. The series is classed as protein-complex assay. (In general: Time-resolved FRET reads energy transfer from a long-lived donor to a nearby acceptor.)

A value given as a limit tells only on which side of the number the result lay.

Sequence of Programmed cell death protein 1/Programmed cell death 1 ligand 1 (Q15116 whole entry): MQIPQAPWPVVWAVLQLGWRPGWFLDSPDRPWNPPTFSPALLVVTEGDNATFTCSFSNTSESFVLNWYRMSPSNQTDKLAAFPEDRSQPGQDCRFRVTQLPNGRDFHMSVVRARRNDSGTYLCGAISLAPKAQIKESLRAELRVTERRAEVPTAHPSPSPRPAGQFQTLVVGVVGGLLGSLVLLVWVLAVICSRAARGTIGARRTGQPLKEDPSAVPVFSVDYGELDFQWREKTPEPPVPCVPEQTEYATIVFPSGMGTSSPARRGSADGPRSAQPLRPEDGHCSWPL
Sequence of Programmed cell death protein 1/Programmed cell death 1 ligand 1 (Q9NZQ7 whole entry): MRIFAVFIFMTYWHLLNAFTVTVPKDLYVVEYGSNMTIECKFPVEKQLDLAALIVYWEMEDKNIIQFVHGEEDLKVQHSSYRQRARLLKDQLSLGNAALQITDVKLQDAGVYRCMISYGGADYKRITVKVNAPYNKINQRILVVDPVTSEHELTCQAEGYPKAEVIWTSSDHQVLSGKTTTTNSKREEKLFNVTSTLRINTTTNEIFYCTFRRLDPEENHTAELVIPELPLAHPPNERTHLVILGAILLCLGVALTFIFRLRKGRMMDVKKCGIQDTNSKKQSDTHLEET

`CC(C)(C)NCC(O)COc1cccc2c1CC(O)C(O)C2` (stereo unspecified) [NADOLOL]: the logD (as a rule, the decadic logarithm of the distribution of all forms, ionised or not, between an organic phase and buffer at a given pH) in series [1] (octanol/water, pH 7.4, 1 h) was -1.2.

Consider `COc1ccc(CNCc2cn([C@@H]3OC[C@H](O)[C@H](O)[C@H]3O)nn2)cc1OCc1cccc(-c2ccccc2)c1C`, for which the figures for the 50% inhibitory concentration (IC50) in series [2] and in series [3] were 49.2 µM and 1240 nM, respectively. For the compound `COc1nc(OCc2cccc(-c3ccccc3)c2C)ccc1CNCc1cn([C@@H]2OC[C@@H](O)[C@@H](O)[C@H]2O)nn1`, the half-maximal inhibitory concentration (IC50) (in general, the concentration that inhibits the measured activity by half) was found to be 16.9 µM in series [2] and 98.9 nM in series [3]. `COc1ccc(CNCc2cn([C@@H]3OC[C@@H](O)[C@@H](O)[C@H]3O)nn2)cc1OCc1cccc(-c2ccccc2)c1C`: the IC50 in series [2] stood at 31.3 µM; in series [3], 2260 nM.

As to `COc1nc(OCc2cccc(-c3ccccc3)c2C)ccc1CNCc1cn([C@@H]2O[C@@H]3CO[C@@H](c4ccccc4)O[C@H]3[C@H](O)[C@H]2O)nn1`, the IC50 was 8.8 µM in series [2] and 461 nM in series [3]. In the same order, the values of `COc1cc(OCc2cccc(-c3ccccc3)c2C)cc(OC)c1CNCc1cn([C@H]2O[C@@H](C)[C@@H](O)[C@@H](O)[C@@H]2O)nn1` are 30.8 µM and 161 nM.

For `COc1nc(OCc2cccc(-c3ccccc3)c2C)ccc1CNCc1cn([C@@H]2OC[C@@H](O)[C@H](O)[C@H]2O)nn1`, the IC50 in series [2] came out at 25.5 µM; in series [3], 110 nM.

Take `COc1nc(OCc2cccc(-c3ccccc3)c2C)ccc1CNCc1cn([C@@H]2O[C@H](CO)[C@@H](O)[C@H](O)[C@H]2NC(C)=O)nn1`: the IC50 in series [2] was above 100 µM; in series [3] it was 23.7 nM.

Turning to `COc1ccc(CNCc2cn([C@@H]3O[C@H](CO)[C@@H](O)[C@H](O)[C@H]3NC(C)=O)nn2)cc1OCc1cccc(-c2ccccc2)c1C`, the values for the IC50 in series [2] and in series [3] were above 100 µM and 1090 nM, respectively. `COc1nc(OCc2cccc(-c3ccccc3)c2C)ccc1CNCc1cn([C@H]2O[C@@H](C)[C@@H](O)[C@@H](O)[C@@H]2O)nn1`: the IC50 in series [2] was 24.5 µM; in series [3], 178 nM. In the same order, the values of `COc1nc(OCc2cccc(-c3ccccc3)c2C)ccc1CNCc1cn([C@@H]2O[C@H](CO)[C@H](O)[C@H](O)[C@H]2O)nn1` are above 100 µM and 174 nM. On to `COc1cc(OCc2cccc(-c3ccccc3)c2C)cc(OC)c1CNCc1cn([C@@H]2O[C@H](CO)[C@@H](O)[C@H](OC)[C@H]2O)nn1`, for which the IC50 in series [2] was 44 µM; in series [3], 355 nM. For `COc1ccc(CNCc2cn([C@H]3O[C@@H](C)[C@@H](O)[C@@H](O)[C@@H]3O)nn2)cc1OCc1cccc(-c2ccccc2)c1C`, the half-maximal inhibitory concentration (IC50) in series [2] was 53.1 µM; in series [3], 1920 nM. As for `COc1ccc(CNCc2cn([C@@H]3O[C@H](CO)[C@@H](O)[C@H](O)[C@H]3O)nn2)cc1OCc1cccc(-c2ccccc2)c1C`, the IC50 was above 100 µM in series [2] and 1760 nM in series [3]. For the compound `COc1cc(OCc2cccc(-c3ccccc3)c2C)cc(OC)c1CNCc1cn([C@@H]2OC[C@H](O)[C@@H](O)[C@H]2O)nn1`, the IC50 turned out to be 19.8 µM in series [2] and 321 nM in series [3]. The compound `CN(C)CCCN1c2ccccc2Sc2ccc(Cl)cc21` [CHLORPROMAZINE] displayed a logD at 1 h in series [1] of 3.18. As to `COc1cc(OCc2cccc(-c3ccccc3)c2C)cc(OC)c1CNCc1cn([C@@H]2O[C@H](CO)[C@@H](O)[C@H](O)[C@H]2NC(C)=O)nn1`, the IC50 in series [2] is above 100 µM; in series [3], 30 nM. On to `COc1cc(OCc2cccc(-c3ccccc3)c2C)cc(OC)c1CNCc1cn([C@@H]2O[C@@H]3CO[C@@H](c4ccccc4)O[C@H]3[C@H](O)[C@H]2O)nn1`, for which the IC50 in series [2] is 4.5 µM; in series [3], 1090 nM. For `COc1ccc(CNCc2cn([C@H]3OC[C@@H](O)[C@H](O)[C@@H]3O)nn2)cc1OCc1cccc(-c2ccccc2)c1C`, in that order: 43.5 µM and 503 nM. Consider `CN(C)CCC=C1c2ccccc2CCc2ccccc21` [AMITRIPTYLINE], for which the log distribution coefficient (logD) at 1 h in series [1] came to 3.

In the case of `COc1nc(OCc2cccc(-c3ccccc3)c2C)ccc1CNCc1cn([C@@H]2O[C@H](CO)[C@@H](O)[C@H](O)[C@H]2O)nn1`, the IC50 in series [2] was above 100 µM; in series [3], 56.1 nM. For the compound `COc1nc(OCc2cccc(-c3ccccc3)c2C)ccc1CNCc1cn([C@H]2O[C@H](CO)[C@@H](O)[C@H](O)[C@@H]2O)nn1`, the IC50 in series [2] was 46 µM; in series [3] it was 164 nM. In the case of `COc1ccc(CNCc2cn([C@@H]3O[C@H](CO)[C@H](O)[C@H](O)[C@H]3O)nn2)cc1OCc1cccc(-c2ccccc2)c1C`, the IC50 was above 100 µM in series [2] and 612 nM in series [3]. `COc1cc(OCc2cccc(-c3ccccc3)c2C)cc(OC)c1CNCc1cn([C@H]2O[C@H](CO)[C@@H](O)[C@H](O)[C@@H]2O)nn1`: the values for the half-inhibitory concentration (IC50) in series [2] and in series [3] were 50.5 µM and 114 nM, respectively.

Regarding `COc1cc(OCc2cccc(-c3ccccc3)c2C)cc(OC)c1CNCc1cn([C@@H]2OC[C@@H](O)[C@@H](O)[C@H]2O)nn1`, the values for the IC50 in series [2] and in series [3] were 14.9 µM and 206 nM, respectively. Take `COc1nc(OCc2cccc(-c3ccccc3)c2C)ccc1CNCc1cnnn1[C@H]1OC[C@@H](O)[C@H](O)[C@@H]1O`: the results for the IC50 in series [2] and in series [3] were 26.7 µM and 118 nM, respectively. `COc1ccc(CNCc2cn([C@@H]3O[C@H](CO)[C@@H](O)[C@H](OC)[C@H]3O)nn2)cc1OCc1cccc(-c2ccccc2)c1C`: the IC50 in series [2] worked out at 50 µM; in series [3], 384 nM. For `COc1cc(OCc2cccc(-c3ccccc3)c2C)cc(OC)c1CNCc1cn([C@@H]2OC[C@H](O)[C@H](O)[C@H]2O)nn1`, in that order: 43.4 µM and 507 nM. As for `COc1nc(OCc2cccc(-c3ccccc3)c2C)ccc1CNCc1cn([C@@H]2O[C@H](CO)[C@@H](O)[C@H](OC)[C@H]2O)nn1`, the IC50 was determined as 34.3 µM in series [2] and 305 nM in series [3]. For `COc1ccc(CNCc2cn([C@@H]3OC[C@H](O)[C@@H](O)[C@H]3O)nn2)cc1OCc1cccc(-c2ccccc2)c1C`, in that order: 53.9 µM and 1480 nM.

In the case of `COc1cc(OCc2cccc(-c3ccccc3)c2C)cc(OC)c1CNCc1cnnn1[C@H]1OC[C@@H](O)[C@H](O)[C@@H]1O`, the IC50 was determined as 24.9 µM in series [2] and 169 nM in series [3]. With `COc1cc(OCc2cccc(-c3ccccc3)c2C)cc(OC)c1CNCc1cn([C@@H]2O[C@H](CO)[C@H](O)[C@H](O)[C@H]2O)nn1`, the IC50 in series [2] amounted to 27.3 µM; in series [3], 454 nM.

`COc1ccc(CNCc2cn([C@@H]3O[C@@H]4CO[C@@H](c5ccccc5)O[C@H]4[C@H](O)[C@H]3O)nn2)cc1OCc1cccc(-c2ccccc2)c1C`: the IC50 in series [2] amounted to 6.2 µM; in series [3] it was 2960 nM. `COc1ccc(CNCc2cn([C@@H]3OC[C@@H](O)[C@H](O)[C@H]3O)nn2)cc1OCc1cccc(-c2ccccc2)c1C`: the IC50 in series [2] amounted to 47.5 µM; in series [3] it was 1780 nM. Regarding `COc1ccc(CNCc2cn([C@H]3O[C@H](CO)[C@@H](O)[C@H](O)[C@@H]3O)nn2)cc1OCc1cccc(-c2ccccc2)c1C`, the half-maximal inhibitory concentration (IC50) is 73.9 µM in series [2] and 1150 nM in series [3]. With `COc1cc(OCc2cccc(-c3ccccc3)c2C)cc(OC)c1CNCc1cn([C@@H]2O[C@H](CO)[C@@H](O)[C@H](O)[C@H]2O)nn1`, the IC50 was above 100 µM in series [2] and 147 nM in series [3].

For `COc1cc(OCc2cccc(-c3ccccc3)c2C)cc(OC)c1CNCc1cn([C@@H]2OC[C@@H](O)[C@H](O)[C@H]2O)nn1`, the IC50 in series [2] was found to be 27.6 µM; in series [3] it was 353 nM.
